According to PubChem BioAssay AID1963854 (Molecular Pharmacology Branch, DTP, NCI, 2024):
“And” between values parts separate entries of the source, which are not always exact repeats. Equal entries are not always repeated.

System: 186277-243-T-J2-PDC complex spheroid viability
Assay: Anticancer human tumor 186277-243-T-J2-PDC patient-derived colon adenocarcinoma cell line growth inhibition [POLQ]
Details: for viability, T/C: stronger effect = lower value; active = viability on the fitted dose curve at most 10% of control; inactive = the rest
Protocol: Multicellular complex tumor spheroid response to Polymerase (POL) inhibitors (novobiocin, ART-558, RP6685) in combination with a variety of drugs and investigational agents in selected tumor cell lines
The POL inhibitors (novobiocin, ART-558, and RP6685) were evaluated both individually and in combination with standard of care and investigational anticancer small molecules within a complex spheroid model of solid tumors. . Complex spheroids include a stromal component modeled by human endothelial cells (HUVEC) and fibroblasts modeled by human mesenchymal stem cells (MSCs). The concentration ranges selected for each drug and investigational agent were based upon clinically achievable concentrations if the clinical Cmax of the agent was known.
Compounds. The drugs and investigational agents: novobiocin (NSC847541), ART-558 (NSC835418), RP-6685 (NSC848927), peposertib (NSC802822), ceralasertib (NSC780249), elimusertib (NSC800525), camonsertib (NSC841442), AZD-1390 (NSC803789), olaparib (NSC753686), talazoparib (NSC767125), rucaparib (NSC756644), sotorasib (NSC818433), MRTX-1133 (NSC836407), SN-38 (NSC673596), topotecan (NSC609699), epotoside (NSC141540), doxorubicin (NSC123127), gemcitabine (NSC613327), 5-fluorouracil (NSC19893), paclitaxel (NSC125973), vemurafenib (NSC761431), MSA-2 (NSC828583), SN-011 (NSC837082), adavosertib (NSC754352), prexasertib (NSC758257), carboplatin (NSC241240) and oxaliplatin (NSC266046), were obtained from the National Cancer Institute (NCI) Developmental Therapeutics Program Chemical Repository (21). The FDA-approved anticancer drug set is available from the Developmental Therapeutics Program at https://dtp.cancer.gov/organization/dscb/obtaining/. […] The stock solutions were prepared in dimethyl sulfoxide (DMSO, Sigma-Aldrich, St. Louis, MO, cat. D2650), except for the platinum compounds which were prepared in saline (Quality Biological, Gaithersburg, MD, cat. 114-055-101), at 800-fold the tested concentration and stored at -70 degrees C prior to their use. All drugs and investigational agents were tested over a range starting from a high concentration at or near the clinical Cmax and decreasing in half-log increments. If the clinical Cmax for an agent had not been determined, the highest concentration tested was 10 microM, except for SN-38, which was tested at a high concentration of 1 microM.
Cell Culture. All cells were maintained in an incubator at 37 degrees C and 5% CO2 with 95% humidity. The PDC lines were cultured according to standard operating procedures established by the NCI PDMR (https://pdmr.cancer.gov). Table 3 of the manuscript, lists the cell lines along with the number of the three cell types plated to form the mct-spheroids and media for tumor cell growth. After thawing, all PDC lines, except 997537-175-T-J1-PDC and 415267-285-R-J2-PDC, were cultured in Matrigel-coated flasks prepared with a working solution of 1X Ham's F-12 nutrient mix, without supplementation (Thermo Fisher Scientific, cat. 11765054), 100 U/mL penicillin-streptomycin (Thermo Fisher Scientific, cat. 15140122), and 2.5% Matrigel (Corning Inc., Corning, NY, cat. 354248) for the first three passages. The two PDC lines 997537-175-T-J1-PDC and 415267-285-R-J2-PDC were cultured on uncoated flasks. The 857933-349-R-J2-PDC line was cultured in 6C/Colon 1B media containing advanced DMEM/F-12 (Thermo Fisher Scientific, cat. 12634028), 10 mM HEPES (Thermo Fisher Scientific, cat. 15630080), 1X GlutaMAX supplement (Thermo Fisher Scientific, cat. 35050061), 0.1 mg/mL primocin (InvivoGen, San Diego, CA, cat. ant-pm-2), 10% defined fetal bovine serum, heat inactivated (HyClone Laboratories Inc., Logan, UT, cat. SH30070.03HI), 50% L-WRN conditioned media (ATCC, cat. CRL-3276), 1.25 mM N-Acetyl-L-cysteine (Sigma-Aldrich, cat. A9165), 10 mM nicotinamide (Sigma-Aldrich, cat. N0636), 1X B-27 supplement (Thermo Fisher Scientific, cat. 17504044), 1X N-2 supplement (Thermo Fisher Scientific, cat. […]
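Note: spheroids exposed to compounds for seven days.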

CC1COCCN1c1cc(C2(S(C)(=N)=O)CC2)nc(-c2ccnc3[nH]ccc23)n1 (centres undefined) + Nc1ccc(C#CCN(C(=O)Cc2ncc(C(F)(F)F)cc2C(F)(F)F)c2ccc(F)cc2)nn1
inactive: viability, T/C (second compound 0.0316 µM, first compound 0.0316 µM) 103% | viability, T/C (second compound 0.0316 µM, first compound 0.1 µM) 96.5% | viability, T/C (second compound 0.0316 µM, first compound 0.316 µM) 102% | viability, T/C (second compound 0.0316 µM, first compound 1 µM) 88.1% | viability, T/C (second compound 0.0316 µM, first compound 3.16 µM) 14.1% | viability, T/C (second compound 0.1 µM, first compound 0.0316 µM) 97.2% | viability, T/C (second compound 0.1 µM, first compound 0.1 µM) 90.5% | viability, T/C (second compound 0.1 µM, first compound 0.316 µM) 93% | viability, T/C (second compound 0.1 µM, first compound 1 µM) 85.9% | viability, T/C (second compound 0.1 µM, first compound 3.16 µM) 14.8% | viability, T/C (second compound 0.1 µM, first compound 10 µM) 10.2% | viability, T/C (second compound 0.316 µM, first compound 0.0316 µM) 109% | viability, T/C (second compound 0.316 µM, first compound 0.1 µM) 102% | viability, T/C (second compound 0.316 µM, first compound 0.316 µM) 110% | viability, T/C (second compound 0.316 µM, first compound 1 µM) 93.6% | viability, T/C (second compound 0.316 µM, first compound 3.16 µM) 14.8% | viability, T/C (second compound 0.316 µM, first compound 10 µM) 10.7% | viability, T/C (second compound 1 µM, first compound 0.0316 µM) 99.4% | viability, T/C (second compound 1 µM, first compound 0.1 µM) 105% | viability, T/C (second compound 1 µM, first compound 0.316 µM) 98.8% | viability, T/C (second compound 1 µM, first compound 1 µM) 84.8% | viability, T/C (second compound 1 µM, first compound 3.16 µM) 15.2% | viability, T/C (second compound 3.16 µM, first compound 0.0316 µM) 109% | viability, T/C (second compound 3.16 µM, first compound 0.1 µM) 104% | viability, T/C (second compound 3.16 µM, first compound 0.316 µM) 118% | viability, T/C (second compound 3.16 µM, first compound 1 µM) 78.7% | viability, T/C (second compound 3.16 µM, first compound 3.16 µM) 15% | viability, T/C (second compound 3.16 µM, first compound 10 µM) 8.91% | viability, T/C (second compound 10 µM, first compound 0.0316 µM) 105% | viability, T/C (second compound 10 µM, first compound 0.1 µM) 94.5% | viability, T/C (second compound 10 µM, first compound 0.316 µM) 97.6% | viability, T/C (second compound 10 µM, first compound 1 µM) 77.1% | viability, T/C (second compound 10 µM, first compound 3.16 µM) 14.3%
1.66 µM: IC50 (curve of first compound, second compound 3.16 µM)
1.78 µM: IC50 (curve of first compound, second compound 1 µM)
active: viability, T/C (second compound 0.0316 µM, first compound 10 µM) 9.47% | viability, T/C (second compound 1 µM, first compound 10 µM) 8.83% | viability, T/C (second compound 10 µM, first compound 10 µM) 8.26%
1.89 µM: IC50 (curve of first compound, second compound 0.316 µM)
1.81 µM: IC50 (curve of first compound, second compound 0.0316 µM)
1.64 µM: IC50 (curve of first compound, second compound 10 µM)
1.79 µM: IC50 (curve of first compound, second compound 0.1 µM)

CC(=O)O[C@H]1C(=O)[C@@]2(C)[C@H]([C@H](OC(=O)c3ccccc3)[C@]3(O)C[C@H](OC(=O)[C@H](O)[C@@H](NC(=O)c4ccccc4)c4ccccc4)C(C)=C1C3(C)C)[C@]1(OC(C)=O)CO[C@@H]1C[C@@H]2O
inactive: viability, T/C (compound 0.00949 µM) 38.5% and 44.7% and 19.1%
< 0.00949 µM: IC50 (curve of compound)
active: viability, T/C (compound 0.0949 µM) 7.36% and 7.77% and 3.51% | viability, T/C (compound 0.3 µM) 5.49% and 5.99% and 2.78% | viability, T/C (compound 0.949 µM) 5.37% and 6% and 2.77% | viability, T/C (compound 3 µM) 4.97% and 5.56% and 2.45%
10.6% and 11.3% and 5.03%: viability, T/C (compound 0.03 µM)
